Reference: PubChem BioAssay (NCI)
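All cell lines were grown in 96-well plates and treated with compound for 48 hours. TGI: total growth inhibition.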

What was measured:
Test in all cases: NCI-60 cell line screen, 48 h
[1] = tested on: SK-OV-3 ovarian
[2] = tested on: OVCAR-4 ovarian
[3] = tested on: UACC-62 melanoma
[4] = tested on: IGROV1 ovarian
[5] = tested on: CAKI-1 renal
[6] = tested on: OVCAR-8 ovarian
[7] = tested on: 786-0 renal
[8] = tested on: MDA-N
[9] = tested on: SR leukemia
[10] = tested on: LOX IMVI melanoma
[11] = tested on: PC-3 prostate
[12] = tested on: HCT-116 colon
[13] = tested on: HL-60(TB) leukemia
[14] = tested on: COLO 205 colon
[15] = tested on: EKVX NSCLC

Row | Structure (SMILES) | TGI [1] | TGI [2] | TGI [3] | TGI [4] | TGI [5] | TGI [6] | TGI [7] | TGI [8] | TGI [9] | TGI [10] | TGI [11] | TGI [12] | TGI [13] | TGI [14] | TGI [15]
1 | Cc1ccc(C2SC(N)=Nc3c2c(C)nn3C(=O)c2ccncc2)cc1 (stereo not given) | > 10 µM | > 10 µM | > 10 µM | > 10 µM | > 10 µM | > 10 µM | > 10 µM | > 10 µM | > 10 µM | > 10 µM | > 10 µM | > 10 µM | > 10 µM | > 10 µM | 
2 | COc1ccc(-c2nc3ccc(C)cc3o2)c(OC)c1 | > 100 µM | 74.1 µM | 70.2 µM | 76.3 µM | 76.1 µM | 77.1 µM | 41.7 µM | 64.4 µM | > 72.3 µM | 31 µM | 67.1 µM | 35.8 µM | 50 µM | 40.7 µM | 63 µM
3 | COc1ccc(C2=C(OC(C)=O)c3cccn3-c3ccccc3S2)cc1 | > 10 µM | > 10 µM | > 10 µM | > 10 µM | > 10 µM | > 10 µM | > 10 µM | 1.44 µM | > 10 µM | > 10 µM | > 10 µM |  | 4.57 µM | 8.53 µM | 
4 | C=C1C(=O)C=C2C=C3C(=O)C(C)(C)C[C@]3(O)C12C (stereo not given in full) | 38.1 µM | 12.7 µM | 17.8 µM | 36.5 µM | 3.99 µM | 29.3 µM | 3.41 µM | 13.5 µM | 2.28 µM | 11 µM | 10.2 µM | 9 µM | 2.54 µM | 3.53 µM | 51.2 µM
5 | CC1C(c2ccccc2O)c2cc3c(cc2OC1N1CCCC1)OCO3 (stereo not given) | > 100 µM |  | > 100 µM | > 100 µM | > 100 µM | > 100 µM | 91 µM | 46.8 µM | 54.2 µM | 44.3 µM | 98.8 µM | 43.1 µM | 35.1 µM | 55.5 µM | > 100 µM
6 | COC(=O)c1ccccc1CC1Cc2cc3c(cc2C1)CCC3 | > 100 µM | > 100 µM |  | > 100 µM | > 100 µM | > 100 µM | > 100 µM | > 100 µM | 29.2 µM | 47.8 µM | > 100 µM | 83.1 µM | 23.4 µM | 52.7 µM | > 100 µM
7 | Cc1c(-c2ccccc2)n(C)c2cn[nH]c(=O)c12 | 61.2 µM |  | > 100 µM | > 100 µM | > 100 µM | > 100 µM | 62.5 µM | > 100 µM | 70.9 µM | 38.3 µM | 51.3 µM | > 100 µM | > 100 µM | 32 µM | > 100 µM
8 | O=S(=O)(Nc1ccccc1S(=O)(=O)c1ccccc1)c1ccccc1 | > 100 µM | > 100 µM | > 100 µM | > 100 µM | > 100 µM | > 100 µM | > 100 µM | > 100 µM | > 100 µM | > 100 µM | > 100 µM | > 100 µM | > 100 µM | > 100 µM | 97 µM
9 | O=C(c1nsc(Cl)c1Cl)N1CCCCC1 | > 100 µM | > 100 µM | > 100 µM | > 100 µM | > 100 µM | > 100 µM | > 100 µM | > 100 µM | > 100 µM | > 100 µM | > 100 µM | > 100 µM | > 100 µM | > 100 µM | > 100 µM
10 | COc1cc(Cn2c3c(c4cc(O)ccc42)C(=O)c2ccccc2C3=O)cc(OC)c1 | 6.68 µM | 33.6 µM | 7.64 µM | 13 µM | 55.5 µM | 19.1 µM | 10.2 µM | > 100 µM | 25.2 µM | > 100 µM | 11.8 µM | 12.7 µM | > 100 µM | 34.7 µM | 48.2 µM
11 | N#Cc1c(N2CCOCC2)ncn(-c2ccccc2)c1=O | > 100 µM |  | > 100 µM | > 100 µM | > 100 µM | > 100 µM | > 100 µM | > 100 µM | > 100 µM | > 100 µM | > 100 µM | > 100 µM | > 100 µM | > 100 µM | > 100 µM
12 | CC(C)(C)OC(=O)C1/C(=C/CO)CN1C(=O)OC(C)(C)C (stereo not given) | > 100 µM | > 100 µM | > 100 µM | > 100 µM | > 100 µM | > 100 µM | > 100 µM | > 100 µM | > 100 µM | > 100 µM | > 100 µM | > 100 µM | > 100 µM | > 100 µM | > 100 µM
13 | COC(=O)[C@]1(c2cc3ccccc3n2S(=O)(=O)c2ccccc2)CC2CCC1NC2 (stereo not given in full) | 32.8 µM | 48.3 µM | 29.5 µM | 33.7 µM | 29.4 µM | 32.3 µM | 27.3 µM | 27.8 µM | 19.2 µM | 36.4 µM | 24.5 µM | 26.6 µM | 16.9 µM | 29.7 µM | 30.1 µM
14 | CC(=O)OC1CC(OC2C(O)CC(OC3C(O)CC(OC4CCC5(C)C(CCC6C5CC(O)C5(C)C(C7=CC(=O)OC7)CCC65O)C4)OC3C)OC2C)OC(C)C1O (stereo not given) (tested in a mixture with another compound) | 0.162 µM | 0.0538 µM | 0.128 µM | 0.176 µM | 0.0818 µM | 0.129 µM | 0.13 µM | 0.147 µM | > 100 µM | 0.0944 µM | 0.123 µM | 0.039 µM |  | 0.168 µM | 0.0381 µM
15 | CCOC(=O)Cn1nc2ccc(Nc3nc4ccccc4nc3C(=O)OCC)cc2n1 | > 100 µM | > 100 µM | > 100 µM | > 100 µM | > 100 µM | > 100 µM | > 100 µM | > 100 µM | > 100 µM | > 100 µM | > 100 µM | > 100 µM | > 100 µM | > 100 µM | > 100 µM
16 | CC(C)C1OCC(CO)CO1 (stereo not given) | > 100 µM | > 100 µM | > 100 µM |  | > 100 µM | > 100 µM | > 100 µM | > 100 µM | > 100 µM | > 100 µM | > 100 µM | > 100 µM | > 100 µM | > 100 µM | > 100 µM
17 | Nc1nc(Cl)cc(Nc2ccc3c(c2)CCC3)n1 | > 100 µM | > 100 µM | > 100 µM | > 100 µM | > 100 µM | > 100 µM | > 100 µM | > 100 µM | 63.3 µM | > 100 µM | > 100 µM | > 100 µM | 80.9 µM | > 100 µM | > 100 µM
18 | CC(=O)Oc1ccc(-c2cc3ccccc3oc2=O)cc1OC(C)=O |  | > 100 µM |  |  |  | > 100 µM | > 100 µM | > 100 µM | > 100 µM | > 100 µM | > 100 µM | > 100 µM | 7.48 µM | > 100 µM | > 100 µM
19 | CCCNc1[nH]c(C(C)=O)c(N)c1C(=S)Nc1ccccc1 | > 100 µM | 74.5 µM | 41.6 µM | > 100 µM | > 100 µM | > 100 µM | 75.6 µM | > 100 µM | > 100 µM | 63.4 µM | > 100 µM | > 100 µM | > 100 µM | > 100 µM | > 100 µM
20 | COC(=O)C1=NN2c3ccccc3CN([C@@H](C)c3ccccc3)C(=O)[C@@H]2C1 | > 100 µM | 26.1 µM | 66.8 µM | > 100 µM | 77.7 µM | > 100 µM | > 100 µM | > 100 µM | 82.9 µM | 77.1 µM | > 100 µM | > 100 µM | 48.6 µM | > 100 µM | > 100 µM
21 | Cc1cccc(C)c1NC(=S)/N=C/C1=C(O)c2ccccc2C1=O | > 29.3 µM | > 65.4 µM | > 70.8 µM | > 79.4 µM | 68.9 µM | > 100 µM | > 100 µM | > 95.5 µM | 8.19 µM | > 100 µM | > 100 µM | > 59.8 µM | > 100 µM | > 40.4 µM | > 94.4 µM
22 | C=CCC1(O)c2cccc(O)c2C(=O)c2c(O)cccc21 |  | > 100 µM |  | > 100 µM | > 100 µM | > 100 µM | > 100 µM | 45 µM | 44.7 µM | 57.2 µM | 88 µM | 57.7 µM | 47.5 µM |  | 92.2 µM
23 | CC(C)CCNC(=O)c1ccc(CNC(=O)/C=C/c2ccc(-c3ccccc3[N+](=O)[O-])o2)cc1 | > 100 µM | 55.3 µM | > 100 µM |  | > 100 µM | > 100 µM | > 100 µM | > 100 µM | > 100 µM | > 100 µM | > 100 µM | > 100 µM | > 100 µM | > 100 µM | 
24 | CCNC1CC(C(C)(C)NCC)CC=C1C (stereo not given) | > 100 µM | > 100 µM | > 100 µM | > 100 µM |  | > 100 µM | > 100 µM | > 100 µM | > 100 µM | > 100 µM | > 100 µM | > 100 µM | > 100 µM | > 100 µM | > 100 µM
25 | COc1cc(OC)c(/C=N/N=C(\N)NO)c(OC)c1 | > 100 µM | > 100 µM | > 100 µM | > 100 µM | > 100 µM | > 100 µM | > 100 µM | > 100 µM | > 100 µM | > 100 µM | > 100 µM | > 100 µM |  | > 100 µM | > 100 µM
